In patent US11708348B2, “Protease inhibitors for treatment of coronavirus infections” (The Scripps Research Institute, priority 2021, dated 2023):
Like-named read-outs stand apart in the source and are kept apart here.

Tested on: SARS-CoV-2 strain USA-WA1/2020
Assay: microbe, parasite or virus in culture
Format: cell-based
Conditions: Severe acute respiratory syndrome coronavirus 2, HeLa-ACE2, 24 h, HeLa-ACE2 cells, SARS-CoV-2 infection, 24 h, read-out: EC50, uM (Hela)

Row | Compound | EC50 [µM] | EC50 (class symbols) [µM] | further results
1 | CC1(C)[C@@H]2[C@@H](C(=O)N[C@@H](C[C@@H]3CCNC3=O)C(=O)COC(F)(F)F)N(C(=O)c3cc(C(F)(F)F)no3)C[C@@H]21 [Compound 488, (1R,2S,5S)-6,6-dimethyl-N-((S)-3-oxo-1-((S)-2-oxo-pyrrolidin-3-yl)-4-(trifluoromethoxy)butan-2-yl)-3-(3-(trifluoromethyl)-isoxazole-5-carbonyl)-3-azabicyclo[3.1.0]-hexane-2-carboxamide] | 0.05 to 0.2 |  | 
2 | CC1(C)[C@@H]2[C@@H](C(=O)N[C@@H](C[C@@H]3CCNC3=O)C(=O)COC(F)(F)F)N(C(=O)[C@H](O)C(F)(F)F)C[C@@H]21 [Compound 386, (1R,2S,5S)-6,6-dimethyl-N-((S)-3-oxo-1-((S)-2-oxopyrrolidin-3-yl)-4-(trifluoromethoxy)butan-2-yl)-3-((S)-3,3,3-trifluoro-2-hydroxypropanoyl)-3-azabicyclo[3.1.0]-hexane-2-carboxamide] |  | 0.05 to 0.2 | 
3 | CC(C)C[C@H](NC(=O)C(=O)NC1CC(F)(F)C1)C(=O)N[C@@H](C[C@@H]1CCNC1=O)C(=O)COC(F)(F)F [Compound 205, Nl-(3,3-difluorocyclobutyl)-N2-((S)-4-methyl-1-oxo-1-(((S)-3-oxo-1-((S)-2-oxopyrrolidin-3-yl)-4-(trifluoromethoxy)butan-2-yl)amino)pentan-2-yl)oxalamide] |  | < 0.05 | 
4 | CC(C)(C)C[C@H](NC(=O)c1cc(C(F)F)on1)C(=O)N[C@@H](C[C@@H]1CCNC1=O)C(=O)COC(F)(F)F [Compound 532, 5-(difluoromethyl)-N-((S)-4,4-dimethyl-1-oxo-1-(((S)-3-oxo-1-((S)-2-oxopyrrolidin-3-yl)-4-(trifluoromethoxy)butan-2-yl)amino)pentan-2-yl)isoxazole-3-carboxamide] | < 0.05 |  | 
5 | O=C1NCC[C@H]1C[C@H](NC(=O)[C@@H]1[C@H]2CCC[C@H]2CN1C(=O)[C@H](O)c1ccccc1)C(=O)COC(F)(F)F [Compound 414, (1S,3aR,6aS)-2-((R)-2-hydroxy-2-phenylacetyl)-N-((S)-3-oxo-1-((S)-2-oxopyrrolidin-3-yl)-4-(trifluoromethoxy)butan-2-yl)octahydrocyclo-penta[c]pyrrole-1-carboxamide] | < 0.05 |  | 
6 | O=C(N[C@@H](CC1CCCCC1)C(=O)N[C@@H](C[C@@H]1CCNC1=O)C(=O)COc1c(F)c(F)cc(F)c1F)c1cc(-c2ccccc2F)on1 [Compound 110, N-((S)-3-cyclohexyl-1-oxo-1-(((S)-3-oxo-l-((S)-2-oxopyrrolidin-3-yl)-4-(2,3,5,6-tetrafluorophenoxy)butan-2-yl)amino)propan-2-yl)-5-(2-fluorophenyl)isoxazole-3-carboxamide] |  | 0.2 to 0.5 | 
7 | C[C@@]12C[C@@H](C(=O)N[C@@H](C[C@@H]3CCNC3=O)C(=O)COC(F)(F)F)N(C(=O)C(=O)Nc3ccccc3F)[C@@H]1C2 [Compound 581, (1R, 3S, 5R)-2-(2-((2-fluorophenyl)amino)-2-oxoacetyl)-5-methyl-N-((S)-3-oxo-1-((S)-2-oxopyrrolidin-3-yl)-4-(trifluoromethoxy)butan-2-yl)-2-azabicyclo-[3.1.0]hexane-3-carboxamide] |  |  | EC50 (given as bound): > 1 µM
8 | O=C1NCC[C@H]1C[C@H](NC(=O)[C@@H]1CC2(CC2)CN1C(=O)CCC(F)F)C(=O)COC(F)(F)F [Compound 683, (S)-5-(4,4-difluorobutanoyl)-N-((S)-3-oxo-1-((S)-2-oxopyrrolidin-3-yl)-4-(trifluoromethoxy)butan-2-yl)-5-azaspiro[2.4]heptane-6-carboxamide] | 0.05 to 0.2 |  | 
9 | CC(C)C[C@H](NC(=O)C(=O)Nc1ccccc1F)C(=O)N[C@@H](CC1CCCCC1)C(=O)COc1c(F)c(F)cc(F)c1F [Compound 80, N1-((S)-1-(((S)-1-cyclohexyl-3-oxo-4-(2,3,5,6-tetrafluorophenoxy)butan-2-yl)amino)-4-methyl-1-oxopentan-2-yl)-N2-(2-fluorophenyl)oxalamide] |  |  | EC50 (cells given as a bound): > 1 µM
10 | CC(C)(C)NC(=O)C(=O)N1CC2(CCC2)CC1C(=O)N[C@@H](C[C@@H]1CCNC1=O)C(=O)COC(F)(F)F (stereo partly drawn) [Compound 511, 6-(2-(tert-butylamino)-2-oxoacetyl)-N-((S)-3-oxo-1-((S)-2-oxopyrrolidin-3-yl)-4-(trifluoromethoxy)butan-2-yl)-6-azaspiro[3.4]-octane-7-carboxamide] | 0.05 to 0.2 |  | 
11 | CC(C)C[C@@H](O)C(=O)N1C2CCC(CC2)[C@H]1C(=O)N[C@@H](C[C@@H]1CCNC1=O)C(=O)COC(F)(F)F [Compound 642, (S)-2-((R)-2-hydroxy-4-methylpentanoyl)-N-((S)-3-oxo-1-((S)-2-oxopyrrolidin-3-yl)-4-(trifluoromethoxy)butan-2-yl)-2-azabicyclo[2.2.2]octane-3-carboxamide] | < 0.05 |  | 
12 | CC(C)C[C@H](NC(=O)C(=O)N1CCCc2ccccc21)C(=O)N[C@@H](CC1CCNC1=O)C(=O)COC(F)(F)F (stereo partly drawn) [Compound 196, (2S)-2-(2-(3,4-dihydroquinolin-1(2H)-yl)-2-oxoacetamido)-4-methyl-N-((2S)-3-oxo-1-(2-oxopyrrolidin-3-yl)-4-(trifluoromethoxy)butan-2-yl)pentanamide] |  | < 0.05 | 
13 | CC1(NC(=O)C(=O)N2[C@H]3CC[C@H](C3)[C@H]2C(=O)N[C@@H](C[C@@H]2CCNC2=O)C(=O)COC(F)(F)F)CC1 [Compound 546, (1S,3S,4R)-2-(2-((l-methylcyclopropyl)-amino)-2-oxoacetyl)-N-((S)-3-oxo-1-((S)-2-oxopyrrolidin-3-yl)-4-(trifluoromethoxy)butan-2-yl)-2-azabicyclo-[2.2.1]heptane-3-carboxamide] | 0.2 to 0.5 |  | 
14 | CC(C)C[C@H](NC(=O)c1ncc(-c2cccc(F)c2)[nH]1)C(=O)N[C@@H](C[C@@H]1CCNC1=O)C(=O)COC(F)(F)F [Compound 209, 5-(3-fluorophenyl)-N-((S)-4-methyl-1-oxo-1-(((S)-3-oxo-1-((S)-2-oxopyrrolidin-3-yl)-4-(trifluoromethoxy)butan-2-yl)amino)pentan-2-yl)-1H-imidazole-2-carboxamide] |  | < 0.05 | 
15 | [2H]C([2H])([2H])C([2H])([2H])C([2H])([2H])C(=O)N1CC2(CC2)C[C@H]1C(=O)N[C@@H](C[C@@H]1CCNC1=O)C(=O)COC(F)(F)F [Compound 736, (S)-5-(butanoyl-d7)-N-((S)-3-oxo-1-((S)-2-oxopyrrolidin-3-yl)-4-(trifluoromethoxy)butan-2-yl)-5-azaspiro[2.4]heptane-6-carboxamide] | < 0.05 |  | 
16 | Cc1cc(C(=O)N[C@H](C(=O)N[C@@H](CC(C)C)C(=O)N[C@@H](C[C@@H]2CCNC2=O)C(=O)COc2c(F)c(F)cc(F)c2F)C(C)C)no1 [Compound 115, 5-methyl-N-((S)-3-methyl-1-(((S)-4-methyl-1-oxo-1-(((S)-3-oxo-1-((S)-2-oxopyrrolidin-3-yl)-4-(2,3,5,6-tetrafluorophenoxy)butan-2-yl)amino)pentan-2-yl)amino)-1-oxobutan-2-yl)isoxazole-3-carboxamide] |  | 0.2 to 0.5 | 
17 | CC(C)C[C@H](NC(=O)C(=O)NC1(CO)CC1)C(=O)N[C@@H](C[C@@H]1CCNC1=O)C(=O)COC(F)(F)F [Compound 231, Nl-(l-(hydroxymethyl)-cyclopropyl)-N2-((S)-4-methyl-1-oxo-1-(((S)-3-oxo-1-((S)-2-oxopyrrolidin-3-yl)-4-(trifluoromethoxy)butan-2-yl)amino)pentan-2-yl)oxalamide] |  | 0.5 to 1 | 
